Laboratory results published in patent US8404688B2, “Nitrone compounds, process of preparation thereof, and use thereof in medicament manufacture” (Jinan University, priority 2008, dated 2013).

Legend:
[1] = test system: permanent middle cerebral occlusion; settings: monkeys, Marshall et al. 2001; cited from earlier work
[2] = test system: MCA occlusion; settings: male Wistar rats, 2 hour MCA occlusion, given 1 hour after recirculation; at 48 hours and 7 days; Kuroda et al. 1999; cited from earlier work
[3] = test system: cortical neuronal cells; test: Protection of cortical neuronal cells from H2O2-induced oxidative damage (MTT); assay type: cell-based; settings: cortical neurons, FIG. 4
Protocol: Cortical neurons (9×10^4 cells/well) were placed into 96-well cell culture plates, and were incubated at 37° C. for 24 h under 5% CO2. The medium was changed, and the cells were incubated for another 12 h. Drugs at different concentrations were added, and the cells were incubated at 37° C. for 30 min. Hydrogen peroxide were then added, and the cells were incubated for 24 h at 37° C. for 24 h under 5% CO2. A solution of 3-(4,5-dimethylthiazol-2-ly)-2,5-diphenyl-tetrazoliun bromide (MTT) was added, and the cells were incubated for another 4 h before DMSO was added. After the crystals were completely dissolved (30 min), the absorbance was read at 570 nm with a spectrophotometer (Bio-Rad Model 680, Japan). The results were expressed as the percentage of the control (saline group).

[4] = test system: Cortical neurons; test: Protection of neuronal cells from NMDA excitotoxic damage; assay type: cell-based; settings: drug 1-1000 μM, NMDA 100 μM, 24 h, FIG. 5
Protocol: Cortical neurons (9×10^4 cells/well) were placed into 96-well cell culture plates, and were incubated at 37° C. for 24 h under 5% CO2. The medium was changed, and the cells were incubated for another 12 h. Drugs at different concentrations 1000 μM, 100 μM, 10 μM, 1 μM) were added, and the cells were incubated at 37° C. for 30 min. NMDA (15 μL) was then added (final concentration of NMDA is 100 μM), and the cells were incubated for 24 h at 37° C. for 24 h under 5% CO2.

[5] = test system: MCAo rat stroke model; test: Protection of stroke in MCAo rats (infarct area, TTC staining); assay type: in vivo; settings: TBN 80 mg/kg i.p. 1 h after occlusion; 2 h ischemia, 24 h reperfusion; FIG. 6
Protocol: Female Sprague-Dawley rats (210-240 g) were anesthetized with 10% chloral hydrate (400 mg/kg) i.p. The right common carotid artery (CCA) was carefully exposed. The occipital branch of the external carotid artery (ECA) was coagulated and the internal carotid artery (ICA) was isolated. A poly-L-lysine-coated nylon suture (0.32 mm in diameter) was inserted into the ECA and advanced retrogradely until the bifurcation of the CCA from where it was advanced a distance of approximately 18-20 mm into the ICA to occlude the MCA. A ligature was tied around the ICA, the incisions were closed, and the animal was extubated.
TMP (50 mg/kg), TBN (80 mg/kg), PBN (65 mg/kg), Eda (62 mg/kg) and saline were administered i.p. 1 h after MAC occlusion, respectively. After 2 h of MCA occlusion, the suture was withdrawn to allow reperfusion. After 24 h of reperfusion, the animals were re-anesthetized with 10% chloral hydrate (400 mg/kg) i.p., and were then decapitated. The brain was quickly removed, rinsed with PBS, and stored in a refrigerator at −20° C. until it was frozen. The brain was sliced with a blade at every 2-mm from the frontal pole, and the slices were stained with 2,3,5-triphenyltetrazolium chloride (TTC, 0.5% in normal saline) for 30 min at 37° C. […] The area of infarction was quantified by the Osiris 4 software, and the results were expressed as the percentage of the total brain section area.

[6] = test system: thrombus; test: Thrombolytic activity in rats (inferior vena cava ligation, dried thrombus weight); assay type: in vivo; settings: TBN 3.25 mg/kg i.v.; rat; FIG. 7
Protocol: The abdomen was then closed. Drugs were administered 2 h after ligation i.v. via the dorsal tail vein. The abdomen was reopened after […] of ligation. The thrombus was removed and dried at 50° C. for 24 h. The dried thrombus was weighted.

[7] = intravenous injection, rat; Sheu et al. 1997; cited from earlier work
[8] = test system: thrombosis; settings: rat arterio- and phlebo-thrombosis models; Liu and Sylvester 1990; cited from earlier work
[9] = test system: cerebral ischemia; settings: rat 2-h MCA occlusion by intraluminal suture; Ley et al.; cited from earlier work

CC(C)(C)[N+]([O-])=Cc1ccc(S(=O)(=O)[O-])cc1S(=O)(=O)[O-].[Na+].[Na+] [NXY-059, disodium 4-[(tert-butylimino)methyl]benzene-1,3-disulfonate N-oxide]
reduction of overall amount of brain damage vs saline-treated control [1]: > 50%
infarct volume [2]: significantly reduced infarct volume

Cc1nc(C)c(/C=[N+](\[O-])C(C)(C)C)nc1C [TBN, 2-[[(1,1-Dimethylethyl)oxidoimino]methyl]-3,5,6-trimethylpyrazine]
effectiveness relative to Eda in protecting cortical neuronal cells from H2O2-induced damage ([3]; H2O2, MTT): approximately 10 fold
protection of cortical neuronal cells from H2O2-induced damage, compared with TMP and PBN ([3]; drug 30 min before H2O2, 24 h, MTT): more effective than either TMP or PBN
protection of neuronal cells from NMDA toxicity [4]: significantly protected
protective effect in MCAo rat stroke model (area of infarction) [5]: significant protective effects
thrombolytic activity (dried thrombus weight) [6]: significant thrombolytic activity

Cc1nc(C)c(C)nc1C [TMP, tetramethylpyrazine]
prolongation of bleeding time [7]: 1.5 times
thrombolytic activity [8]: showed thrombolytic activity

stilbazulenyl nitrone [STAZN]
neurological deficits compared with vehicle controls [9]: improved neurological deficits
